From patent US6451791B1, “Amidoaromatic ring sulfonamide hydroxamic acid compounds” (Monsanto Company, priority 1997, dated 2002)
Where a name gives a salt, the structure may show the parent alone.

Legend:
hMMP-13 = biological target: T1, hMMP-13 (Homo sapiens, UniProt P45452); experiment: In vitro metalloprotease inhibition, fluorogenic MCA peptide substrate; format: biochemical; conditions: recombinant human enzyme, APMA activated, room temperature, pH 7.5
T1 construct: made in house
Protocol: (§1) The compounds prepared in the manner described in Examples 1 to 15 were assayed for activity by an in vitro assay. Following the procedures of Knight et al., FEBS Lett. 296(3):263 (1992). Briefly, 4-aminophenylmercuric acetate (APMA) or trypsin activated MMPs were incubated with various concentrations of the inhibitor compound at room temperature for 5 minutes.
(§2) More specifically, recombinant human MMP-13 and MMP-1 enzymes were prepared in laboratories of the assignee. MMP-13 was expressed in baculovirus as a proenzyme, and purified first over a heparin agarose column and then over a chelating zinc chloride column. The proenzyme was activated by APMA for use in the assay. MMP-1 expressed in transfected HT-1080 cells was provided by Dr. Howard Welgus of Washington University, St. Louis, Mo. The enzyme was also activated using APMA and was then purified over a hydroxamic acid column.
(§3) The enzyme substrate is a methoxycoumarin-containing polypeptide having the following sequence:
(§4) MCA-ProLeuGlyLeuDpaAlaArgNH^2, wherein MCA is methoxycoumarin and Dpa is 3-(2,4-dinitrophenyl)-L-2,3-diaminopropionyl alanine. This substrate is commercially available from Baychem as product M-1895.
(§5) The buffer used for assays contained 100 mM Tris-HCl, 100 mM NaCl, 10 mM CaCl2 and 0.05 percent polyethyleneglycol (23) lauryl ether at a pH value of 7.5. Assays were carried out at room temperature, and dimethyl sulfoxide (DMSO) at a final concentration of 1 percent was used to dissolve inhibitor compound.
(§6) The assayed inhibitor compound in DMSO/buffer solution was compared to an equal amount of DMSO/buffer with no inhibitor as control using Microfluor™ White Plates (Dynatech). The inhibitor or control solution was maintained in the plate for 10 minutes and the substrate was added to provide a final concentration of 4 μM.
(§7) In the absence of inhibitor activity, a fluorogenic peptide was cleaved at the gly-leu peptide bond, separating the highly fluorogenic peptide from a 2,4-dinitrophenyl quencher, resulting in an increase of fluorescence intensity (excitation at 328 nm/emission at 415 nm). Inhibition was measured as a reduction in fluorescent intensity as a function of inhibitor concentration, using a Perkin Elmer L550 plate reader. The IC50 values were calculated from those values. The results are set forth in the Inhibition Table below as Table 9, reported in terms of IC50.

hMMP-9 = hMMP-9 (Homo sapiens, UniProt P14780); experiment: as above; format: biochemical; conditions: room temperature, pH 7.5
Chain of hMMP-9 (P14780 107-707 limits assumed): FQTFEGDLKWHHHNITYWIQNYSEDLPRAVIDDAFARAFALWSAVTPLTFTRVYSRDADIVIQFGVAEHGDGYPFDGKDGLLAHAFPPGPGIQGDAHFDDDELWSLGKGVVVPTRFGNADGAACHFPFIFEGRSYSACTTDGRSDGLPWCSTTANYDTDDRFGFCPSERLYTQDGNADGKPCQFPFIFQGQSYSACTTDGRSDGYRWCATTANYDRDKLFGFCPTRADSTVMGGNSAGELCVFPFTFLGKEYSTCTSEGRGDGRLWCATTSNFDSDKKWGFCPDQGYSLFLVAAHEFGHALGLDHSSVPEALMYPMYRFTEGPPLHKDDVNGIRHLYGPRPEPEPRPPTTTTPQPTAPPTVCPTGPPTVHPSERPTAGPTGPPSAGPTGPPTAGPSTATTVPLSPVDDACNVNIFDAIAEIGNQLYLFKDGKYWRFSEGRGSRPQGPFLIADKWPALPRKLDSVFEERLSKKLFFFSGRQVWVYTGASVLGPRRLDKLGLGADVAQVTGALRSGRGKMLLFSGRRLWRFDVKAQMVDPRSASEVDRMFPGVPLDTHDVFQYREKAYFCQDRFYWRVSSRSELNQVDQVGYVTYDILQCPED
Protocol: as §1, §3, §4, §5, §6, §7

hMMP-2 = biological target: T2, hMMP-2 (Homo sapiens, UniProt P08253); experiment: as above; format: biochemical; conditions: room temperature, pH 7.5
T2 sequence (P08253 110-660): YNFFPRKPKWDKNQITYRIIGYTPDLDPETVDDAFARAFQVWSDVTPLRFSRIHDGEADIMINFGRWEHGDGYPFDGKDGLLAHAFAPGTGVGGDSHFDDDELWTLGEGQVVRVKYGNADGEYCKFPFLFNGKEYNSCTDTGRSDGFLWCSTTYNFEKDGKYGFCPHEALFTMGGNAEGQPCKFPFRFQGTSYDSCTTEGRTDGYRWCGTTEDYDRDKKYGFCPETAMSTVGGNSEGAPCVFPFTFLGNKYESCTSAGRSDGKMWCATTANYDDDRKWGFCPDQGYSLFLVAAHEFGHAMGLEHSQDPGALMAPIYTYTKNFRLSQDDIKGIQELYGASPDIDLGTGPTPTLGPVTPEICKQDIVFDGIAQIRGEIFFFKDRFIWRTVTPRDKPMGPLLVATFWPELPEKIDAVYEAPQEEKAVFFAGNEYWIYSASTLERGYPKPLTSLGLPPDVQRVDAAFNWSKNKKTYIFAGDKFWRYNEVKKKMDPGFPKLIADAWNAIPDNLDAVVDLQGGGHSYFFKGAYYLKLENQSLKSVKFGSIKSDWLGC
Protocol: as §1, §3, §4, §5, §6, §7

hMMP-3 = hMMP-3 (Homo sapiens, UniProt P08254); experiment: as above; format: biochemical; conditions: room temperature, pH 7.5
Chain of hMMP-3 (P08254 100-477): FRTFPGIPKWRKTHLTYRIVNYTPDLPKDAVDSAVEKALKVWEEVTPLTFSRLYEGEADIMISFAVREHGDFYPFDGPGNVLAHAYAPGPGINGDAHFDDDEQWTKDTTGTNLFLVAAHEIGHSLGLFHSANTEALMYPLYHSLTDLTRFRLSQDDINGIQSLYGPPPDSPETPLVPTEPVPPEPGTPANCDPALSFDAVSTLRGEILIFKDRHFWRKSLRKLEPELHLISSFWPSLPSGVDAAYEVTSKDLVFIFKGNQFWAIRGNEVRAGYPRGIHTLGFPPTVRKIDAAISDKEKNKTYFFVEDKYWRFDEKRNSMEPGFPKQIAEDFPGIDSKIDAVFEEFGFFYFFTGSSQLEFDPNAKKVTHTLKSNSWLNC
Protocol: as §1, §3, §4, §5, §6, §7

hMMP-8 = hMMP-8 (Homo sapiens, UniProt P22894); experiment: as above; format: biochemical; conditions: room temperature, pH 7.5
Chain of hMMP-8 (P22894 101-467): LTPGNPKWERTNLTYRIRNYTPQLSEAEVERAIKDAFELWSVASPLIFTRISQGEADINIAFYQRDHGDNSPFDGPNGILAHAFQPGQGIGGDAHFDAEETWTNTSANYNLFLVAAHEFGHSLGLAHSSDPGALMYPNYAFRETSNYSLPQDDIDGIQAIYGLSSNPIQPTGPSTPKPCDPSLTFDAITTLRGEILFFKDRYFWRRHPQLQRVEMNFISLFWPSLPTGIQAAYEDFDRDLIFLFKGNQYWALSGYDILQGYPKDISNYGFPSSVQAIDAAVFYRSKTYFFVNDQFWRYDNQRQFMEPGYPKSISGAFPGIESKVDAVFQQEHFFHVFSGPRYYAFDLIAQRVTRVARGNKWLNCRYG
Protocol: as §1, §3, §4, §5, §6, §7

hMMP-1 = biological target: T3, hMMP-1 (Homo sapiens, UniProt P03956); experiment: as above; format: biochemical; conditions: recombinant human enzyme, APMA activated, room temperature, pH 7.5
T3 construct: made in house; host or cells: transfected HT-1080 cells (provided by Dr. Howard Welgus, Washington University)
T3 sequence (P03956 100-469): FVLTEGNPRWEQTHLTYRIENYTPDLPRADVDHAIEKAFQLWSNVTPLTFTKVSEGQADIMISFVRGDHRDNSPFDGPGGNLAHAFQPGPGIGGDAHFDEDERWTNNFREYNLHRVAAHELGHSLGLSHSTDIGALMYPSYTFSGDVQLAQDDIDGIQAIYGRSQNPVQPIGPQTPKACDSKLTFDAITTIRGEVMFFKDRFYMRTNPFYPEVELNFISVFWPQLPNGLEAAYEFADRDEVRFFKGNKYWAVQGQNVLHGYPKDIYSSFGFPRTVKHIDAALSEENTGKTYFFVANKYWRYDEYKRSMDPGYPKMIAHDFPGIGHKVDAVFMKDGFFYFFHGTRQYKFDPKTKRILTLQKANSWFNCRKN
Protocol: as §1, §2, §3, §4, §5, §6, §7

[1] = tested on: advanced, rapidly progressive, treatment-refractory solid tumor cancers; conditions: cited from earlier work

Row | Structure (SMILES) | IC50 (hMMP-13) [nM] | IC50 (hMMP-9) [nM] | IC50 (hMMP-2) [nM] | IC50 (hMMP-3) [nM] | IC50 (hMMP-8) [nM] | IC50 (hMMP-1) [nM] | most common drug-related toxicity ([1]; clinical trials in patients) | effect on cancer-specific antigens used as surrogate markers for biological activity ([1]; patients with colorectal, pancreatic, ovarian, prostate cancers)
1 | C[C@H](C(=O)NO)N(CCN1CCOCC1)S(=O)(=O)c1ccc(NC(=O)c2ccccc2)cc1 [Example 4a, (R)-N-[4-[[[2-(Hydroxyamino)-1-methyl-2-oxoethyl][2-4-morpholinyl)ethyl]amino]sulfonyl]phenyl]benzamide, Monohydrochloride] | 2.2 | 24 | – | – | – | – | – | –
2 | CCCc1ccc(C(=O)Nc2ccc(S(=O)(=O)N(Cc3cccnc3)[C@@H](C(=O)NO)C(C)C)cc2)cc1 [Example 11] | 0.5 | 24 | 0.1 | 225 | 39 | > 10000 | – | –
3 | CCCCCc1ccc(C(=O)Nc2ccc(S(=O)(=O)N[C@H](Cc3ccccc3)C(=O)NO)cc2)cc1 [Example 14] | < 0.1 | 161 | < 0.1 | 30 | 34 | > 10000 | – | –
4 | C[C@H](C(=O)NO)N(CCN1CCOCC1)S(=O)(=O)c1ccc(NC(=O)c2ccc(Br)cc2)cc1 [Example 5] | 0.35 | – | – | – | – | 4850 | – | –
5 | CNC(=O)[C@@H](NC(=O)[C@H](CC(C)C)[C@H](O)C(=O)NO)C(C)(C)C [marimastat] | – | – | – | – | – | – | musculoskeletal pain and stiffness | dose-related reduction in the rise of cancer-specific antigens
6 | C[C@H](C(=O)NO)N(CCN1CCOCC1)S(=O)(=O)c1ccc(NC(=O)c2ccccc2)cc1 [Example 4] | 2.5 | 20 | – | – | – | > 10000 | – | –
7 | C[C@H](C(=O)NO)N(CCN1CCOCC1)S(=O)(=O)c1ccc(NC(=O)C2CCCCC2)cc1 [Example 6] | 250 | 3500 | – | – | – | > 10000 | – | –

Second part, led by results:

Row | IC50 (hMMP-13) [nM] | IC50 (hMMP-9) [nM] | IC50 (hMMP-2) [nM] | IC50 (hMMP-3) [nM] | IC50 (hMMP-8) [nM] | IC50 (hMMP-1) [nM] | Structure (SMILES) | most common drug-related toxicity ([1]; clinical trials in patients) | effect on cancer-specific antigens used as surrogate markers for biological activity ([1]; patients with colorectal, pancreatic, ovarian, prostate cancers)
8 | – | – | < 0.1 | 180 | 2.6 | – | CCCCCCc1ccc(C(=O)Nc2ccc(S(=O)(=O)N(CCN3CCOCC3)[C@@H](C(=O)NO)C(C)C)cc2)cc1 [Example 10a, (R)-4-Hexyl-N-[4-[[[1-(hydroxyamino)-carbonyl]-2-methylpropyl][2-(4-morpholinyl)ethyl]amino]sulfonyl]phenylbenzamide] | – | –
9 | 0.3 | 4.5 | – | 90 | 9 | 4000 | CCCc1ccc(C(=O)Nc2ccc(S(=O)(=O)N(CCN3CCOCC3)[C@@H](C(=O)NO)C(C)C)cc2)cc1 [Example 7] | – | –
10 | 0.1 | 31 | – | 50 | 25.8 | 4000 | CCCCc1ccc(C(=O)Nc2ccc(S(=O)(=O)N(CCN3CCOCC3)[C@@H](C(=O)NO)C(C)C)cc2)cc1 [Example 8] | – | –
11 | 0.4 | 1.9 | – | – | – | 880 | CC(C)[C@H](C(=O)NO)N(CCN1CCOCC1)S(=O)(=O)c1ccc(NC(=O)c2ccc(Br)cc2)cc1 [Example 13] | – | –
12 | < 0.1 | 286 | < 0.1 | 140 | 241 | > 10000 | CCCCCc1ccc(C(=O)Nc2ccc(S(=O)(=O)N(CCN3CCOCC3)[C@H](Cc3ccccc3)C(=O)NO)cc2)cc1 [Example 15] | – | –
13 | < 0.1 | 350 | – | – | – | 5600 | CCCCCCc1ccc(C(=O)Nc2ccc(S(=O)(=O)N(CCN3CCOCC3)[C@@H](C(=O)NO)C(C)C)cc2)cc1 [Example 10] | – | –
14 | < 0.1 | 200 | < 0.1 | 55 | 8 | 4000 | CCCCCc1ccc(C(=O)Nc2ccc(S(=O)(=O)N(CCN3CCOCC3)[C@@H](C(=O)NO)C(C)C)cc2)cc1 [Example 9] | – | –
15 | 11.4 | 245 | – | 800 | 12.3 | 3400 | CC(C)[C@H](C(=O)NO)N(CCN1CCOCC1)S(=O)(=O)c1ccc(NC(=O)c2ccccc2)cc1 [Example 12] | – | –
